Measurements taken from patent US9566290B2, “Boron-containing small molecules” (Anacor Pharmaceuticals, Inc., priority 2005, dated 2017).
≈ marks a conversion by molar mass, not a printed value. Values belong to the compound of their own block, whether it stands above or below them.

What was measured:
[1] = Water solubility (table of physicochemical properties)
[2] = system: bacterial isoleucyl-tRNA synthetases; settings: cited from earlier work
[3] = system: S. cerevisiae C10 resistant mutants (CDC60 editing domain mutations); assay: MIC (NCCLS M27), spontaneous and EMS induced C10 resistant mutants; assay type: cell-based, Saccharomyces cerevisiae; settings: for MIC: Saccharomyces cerevisiae, Table 2
Procedure: (§1) The haploid Saccharomyces cerevisiae strain ATCC 201388 was used in the selection of C10 resistant mutants. Spontaneous and EMS-induced resistant mutants were isolated from YPD agar plates containing 4×, 8×, 16×MIC of C10. All minimal inhibitory concentrations (MIC) were determined using NCCLS protocol M27 with the exception of using YPD or synthetic defined media. All yeast and molecular genetic manipulations were essentially performed as described by Guthrie C., et al., Methods in Enzymology, 350: Part B, (2002).
Resistant mutants appeared after 2 d incubation at 30° C. Frequency of resistance was determined by dividing the number of resistant mutants by the total number of cells plated as determined by plating dilutions of the overnight culture on YPD plates.
A 2.5 mL of the overnight culture, which was grown in YPD media, was centrifuged at 700×g for 5 minutes. The cell pellet was resuspended in 10 mL 50 mM potassium phosphate buffer, pH 7.0. The cell suspension was centrifuged again and the cell pellet was resuspended in phosphate buffer to obtain a cell density of 5×10^7 cells/mL as determined by counting the cells using a Petroff Hausser Counting Chamber (Horsham, Pa. USA). The cell suspension was shaken with 300 μL of EMS (Alfa Aesar, Ward Hill, Mass., USA) for 30 min. at 30° C. The mutagenesis was stopped by adding 10% (w/v) sodium thiosulfate (Sigma-Aldrich, St. Louis, Mo., USA), and the cells were pelleted by centrifugation at 700×g for 5 min. and resuspended in 1 mL sterile H2O. This was repeated once more before the cells were plated on YPD agar plates containing 1.6 μg/mL of C10.
(§2) The minimal inhibitory concentration (MIC) was essentially performed following the NCCLS guidelines outlined in the M27 protocol with the exception of using YPD or synthetic defined media (SDM).

[4] = assay type: in vitro ADME, human
Procedure: C10, 5-fluoro-1,3-dihydro-1-phenyl-2,1-benzoxaborole, C1, and 5-fluoro-1,3-dihydro-1-(3-hydroxymethylphenyl)-2,1-benzoxaborole, formulated at 10% w/v in ethanol, were tested. A single aliquot (10 μl) of each formulation was dosed to the top of human nail plates using the nail penetration procedure described below, and allowed to stand for 3-days. The dosed area was washed, and then the cotton ball bed supporting the nail and the nail samples were collected at the end of the incubation period, stored at 4° C. and analyzed for drug using LC/MS/MS.
Details of the nail incubation have been previously described^9, 10. […] The supporting cotton ball under the nail was wetted by normal saline providing moisture for the nail plate, and the degree of hydration was monitored and controlled during the experiment. […]
LC/MS/MS (API3000, Applied Biosystems, Foster City, Calif.) was used to quantitate the amounts of non-radiolabeled oxaboroles, C10, 5-fluoro-1,3-dihydro-1-phenyl-2,1-benzoxaborole, C1, and 5-fluoro-1,3-dihydro-1-(3-hydroxymethylphenyl)-2,1-benzoxaborole in samples from the nail penetration studies. […] After centrifugation, the filtrate from the cotton ball samples was transferred to autosampler vials and analyzed by LC/MS/MS. […]

[5] = system: Saccharomyces cerevisiae strain ATCC 201388; assay: MIC (NCCLS M27, YPD or synthetic defined media), haploid parental strain; assay type: cell-based; settings: Saccharomyces cerevisiae, ATCC201388, Table 2; ATCC201388; read-out: MIC
Procedure: as §1, §2

[6] = Nail penetration, 14-day dosing of radiolabeled compound (Hui protocol); assay type: in vitro ADME; settings: washing, nail samples and supporting bed cotton ball samples; 14-day treatment
Procedure: Two nail penetration studies were performed based on the protocol in Hui et al., Journal of Pharmaceutical Sciences, 91(1): 189-195 (2002) (“Hui protocol”). The purpose of this study was to determine and compare the penetration and distribution of C10 in vehicle into the human nail plate in vitro relative to 8% ciclopirox w/w in commercial lacquer (Penlac®).
The study was composed of two groups. The compositions (weight %) of the dosage formulations are as follows: […]
Healthy human finger nail plates were collected from adult human cadavers and stored in a closed container at 0-4° C. Before the experiment, the nail plates were gently washed with normal saline to remove any contamination, then re-hydrated by placing them for three hours on a cloth wetted with normal saline. The nail samples were randomly selected into four groups.
Radioactivity of each group is approximately 0.19±0.01 and 0.22±0.03 μCi/10 μL solutions respectively, for ^14C—C10 (group A), and ^14C-ciclopirox (group C).
Surface washing was started in morning 10 min prior to next dosing, the surface of the nail was washed with cotton tips in a cycle, as follows:
A Teflon one-chamber diffusion cell (PermeGear, Inc., Hellertown, Pa.) was used to hold each nail. To approximate physiological conditions, a small cotton ball wetted with 0.1 mL normal saline was placed in the chamber to serve as a nail bed and provide moisture for the nail plate. Every 3 days, 0.1 mL normal saline was injected through the inlet into the chamber to keep the cotton ball wet. The nail plate was placed on a ledge inside the receptor (1.0 cm in diameter and 0.5 cm high). The ventral (inner) surface of the nail was placed face down and rested on the wet cotton ball. The cells were placed on a platform in a large glass holding tank filled with saturated sodium phosphate solution to keep the cells at a constant humidity of 40%.
After completion of the incubation phase, the nail plate was transferred from the diffusion cell to a clean copper nail holder for sampling process. The nail plate was inverted so that the ventral (nail bed) surface now faced up and the dorsal (outer) dosed surfaced faced down. The copper nail holder has an opening as it sits on top of the stage. When the sampling process initiated, the coarse adjustment was adjusted to move the position of the stage until the nail plate was just touching the tip of the cutter. Then the drill was turned on and the fine adjustment was turned to push the stage closer to the drill, removing a nail core sample. After the above process, approximate 0.40-0.50 mm in depth and 7.9 mm in diameter nail pulverized samples were harvested from the center of the ventral (nail bed) surface of the nail.
The powdered nail samples were collected into a glass scintillation vial and weighted. Aliquots of 5.0 mL Packard soluene-350 (Packard Instrument Company, Meriden, Conn.) was added to the scintillation vial to dissolve the powder. The upper part, the intermediate and dorsal layers of the center of the nail, including the area of application of the dose was cut in the same diameter as the sampled area and was then placed into a glass scintillation vial with 5.0 mL packard soluene-350. The rest of the nail was also placed in a glass scintillation vial with 5.0 mL packard soluene-350.
All radioactivity measurements were conducted with a Model 1500 Liquid Scintillation Counter (Packard Instrument Company, Downer Grove, Ill.). The counter was audited for accuracy using sealed samples of quenched and unquenched standards as detailed by the instrument manual. The ^14C counting efficiency is equal to or greater than 95%. All nail samples pre-treated with packard soluene-350 were incubated at 40° C. for 48 hours followed by the addition of 10 mL scintillation cocktail (HIONIC-FLUOR, Packard Instrument Company, Meriden, Conn.). […]

solubility [1]: > 100 µg/mL
Compound: OB1OCc2cc(Cl)ccc21 [C1, 5-chlorobenzo[c][1,2]oxaborol-1(3H)-ol]

Compound: C/C(=C\C(=O)OCCCCCCCCC(=O)O)C[C@@H]1OC[C@H](C[C@@H]2O[C@H]2[C@@H](C)[C@H](C)O)[C@@H](O)[C@H]1O [Mupirocin, mupirocin]
activity against the human homolog versus bacterial isoleucyl-tRNA synthetases (times less active) [2]: more than 1,000 times

Compound: Cc1cc(C2CCCCC2)n(O)c(=O)c1 [ciclopirox]
resistance of C10 resistant mutants to other antifungals, in words [3]: not resistant
MIC ([3]; C10 resistant mutant (C)): 0.5 µg/mL (≈ 2.41 µM)
MIC ([3]; C10 resistant mutant (G)): 0.5 µg/mL (≈ 2.41 µM)
MIC ([3]; C10 resistant mutant (H)): 0.5 µg/mL (≈ 2.41 µM)
penetration of the nail plate, in words [4]: penetrates the nail plate poorly
MIC [5]: 0.5 µg/mL (≈ 2.41 µM)
Cumulative radioactivity recoveries of carbon-14 [6]: 89±1.56% of applied dose
